The source of these data is article PMC9330179 (ACS Omega, 2022).

What is called Ki is a measure of affinity in units of concentration, obtained from inhibition or displacement. A low value points to tighter binding. Broadly, the IC50 is the concentration that gives 50% inhibition.

Format in all cases: biochemical
Assay [1] has as its target T1, cathepsin B (Homo sapiens, UniProt P07858).
For another assay, the target named is cathepsin S (Homo sapiens, UniProt P25774). Description: protease activity at a single dose. Particulars: read-out: GER-24 (50 μM) % control activity (100%, no inhibitor).
For assay [2], the target named is T1, cathepsin B. Description: fluorogenic Z-Glu-Lys-AMC assay at pH […], IC50.
In the next assay the target is T2, cathepsin K (Homo sapiens, UniProt P43235).
T2 sequence (P43235 115-329): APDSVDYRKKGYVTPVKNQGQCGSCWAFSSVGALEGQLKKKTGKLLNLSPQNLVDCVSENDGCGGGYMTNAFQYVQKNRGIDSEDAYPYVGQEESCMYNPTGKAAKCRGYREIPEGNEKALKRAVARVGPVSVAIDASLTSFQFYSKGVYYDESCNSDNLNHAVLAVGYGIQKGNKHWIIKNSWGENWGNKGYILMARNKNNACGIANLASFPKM
Description: protease activity at a single dose. Particulars: read-out: GER-24 (50 μM) % control activity (100%, no inhibitor).

In another assay the target is cathepsin V (Homo sapiens, UniProt O60911). Description: protease activity at a single dose. Particulars: read-out: GER-24 (50 μM) % control activity (100%, no inhibitor).
A further assay deals with cathepsin H (Homo sapiens, UniProt P09668). Description: protease activity at a single dose. Conditions: read-out: GER-24 (50 μM) % control activity (100%, no inhibitor).
Chain of cathepsin H (P09668 116-335, other chains not shown): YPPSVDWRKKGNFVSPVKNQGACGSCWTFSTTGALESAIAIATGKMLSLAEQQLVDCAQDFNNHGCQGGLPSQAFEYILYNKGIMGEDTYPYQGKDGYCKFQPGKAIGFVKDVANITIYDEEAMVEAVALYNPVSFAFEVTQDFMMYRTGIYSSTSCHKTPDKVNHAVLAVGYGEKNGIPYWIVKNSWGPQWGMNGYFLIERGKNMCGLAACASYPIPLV

Chain of cathepsin S (P25774 115-331): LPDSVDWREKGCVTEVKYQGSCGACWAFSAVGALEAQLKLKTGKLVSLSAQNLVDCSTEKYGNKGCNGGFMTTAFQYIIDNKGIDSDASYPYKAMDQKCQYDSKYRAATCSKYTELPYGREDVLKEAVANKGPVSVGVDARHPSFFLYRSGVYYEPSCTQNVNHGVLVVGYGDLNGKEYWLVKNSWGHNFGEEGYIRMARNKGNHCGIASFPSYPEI
Chain of cathepsin V (O60911 114-334): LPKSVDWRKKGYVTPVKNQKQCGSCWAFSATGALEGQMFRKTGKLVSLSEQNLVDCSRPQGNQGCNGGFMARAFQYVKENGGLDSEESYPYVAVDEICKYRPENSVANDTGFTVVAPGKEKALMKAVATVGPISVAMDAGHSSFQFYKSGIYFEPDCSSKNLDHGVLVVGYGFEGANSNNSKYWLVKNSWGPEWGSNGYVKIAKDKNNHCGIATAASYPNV

In turn, `O=S(=O)(O)Oc1ccc(Oc2cc(Br)c(Oc3ccc(OS(=O)(=O)O)c(Oc4ccc(Br)cc4Br)c3Br)c(Oc3ccc(Br)cc3Br)c2)cc1Br` [GER-12, Crossbyanol B] registered a Ki on cathepsin B [1] of 1.4 µM.
As for `CCCCC/C=C\C/C=C\C=C/C#CCCCC(=O)O` [GER-24, (7Z,9Z,12Z)-octadeca-7,9,12-trien-5-ynoic acid], the remaining activity at 50 µM at cathepsin S worked out at 0%; at cathepsin K it was 7%; at cathepsin V, 17%; at cathepsin H it was 21%. In addition, the IC50 on cathepsin B [2] was 16 µM.
